Measured values as given in patent publication US20250129062A1, “AMORPHOUS SUBSTANCES, CRYSTALS, PHARMACEUTICAL COMPOSITIONS, PREPARATION METHODS AND USES OF THIOHYDANTOIN COMPOUND OR PHARMACEUTICALLY ACCEPTABLE SALT THEREOF” (SUZHOU KINTOR PHARMACEUTICALS, INC., priority 2021, published 2025).
In brackets after ≈: the same amount, converted by molar mass. Read-outs that look alike come from different tables or passages of the source.

Test: Solubility of amorphous substance in solvent systems (supersaturated solution, oscillated 24 h at room temperature, HPLC)
Type: physicochemical
Conditions: for solubility at 24 h: thermodynamic from solid
Method: The amorphous substance of the compound of formula I was prepared into supersaturated solutions with different solvents, and oscillated under a room temperature condition (a constant temperature). After oscillating for 24 h, sampling was performed, and the content of the sample was detected by HPLC under condition 1.
Condition 1: • Chromatographic column: C18 (150 mm×4.6 mm×3.5 μm); • Mobile phase: binary mobile phase system, mobile phase A was 0.1% formic acid in water, mobile phase B was acetonitrile; • Elution time: 68 min; • Elution mode: gradient elution (in the gradient elution process, mobile phase A had the maximum volume percentage of 95% and the minimum volume percentage of 10%); • Detection wavelength: 270 nm.

Cc1ncsc1-c1ccc(CNC(=O)[C@@H]2C[C@@H](O)CN2C(=O)[C@@H](NC(=O)COCCCCOc2ccc(-c3ccc(N4C(=S)N(c5ccc(C#N)c(C(F)(F)F)c5F)C(=O)C4(C)C)cn3)cc2)C(C)(C)C)cc1
solubility at 24 h (dehydrated alcohol-propylene glycol-water solvent mixture, aqueous with cosolvent or surfactant or cyclodextrin, Dehydrated alcohol 35%-propylene glycol 35%-water 30% (w/w), read-out: Solubility): 52300 µg/mL (≈ 50.1 mM)
solubility at 24 h (dehydrated alcohol-propylene glycol-water solvent mixture, aqueous with cosolvent or surfactant or cyclodextrin, Dehydrated alcohol 35%-propylene glycol 40%-water 25% (w/w), read-out: Solubility): 62700 µg/mL (≈ 60.1 mM)
solubility at 24 h (dehydrated alcohol-propylene glycol-water solvent mixture, aqueous with cosolvent or surfactant or cyclodextrin, Dehydrated alcohol 35%-propylene glycol 50%-water 15% (w/w), read-out: Solubility): > 189000 µg/mL
solubility at 24 h (dehydrated alcohol-propylene glycol-water solvent mixture, aqueous with cosolvent or surfactant or cyclodextrin, Dehydrated alcohol 40%-propylene glycol 10%-water 50% (w/w), read-out: Solubility): 3020 µg/mL (≈ 2.89 mM)
solubility at 24 h (dehydrated alcohol-propylene glycol-water solvent mixture, aqueous with cosolvent or surfactant or cyclodextrin, Dehydrated alcohol 40%-propylene glycol 20%-water 40% (w/w), read-out: Solubility): 19500 µg/mL (≈ 18.7 mM)
solubility at 24 h (dehydrated alcohol-propylene glycol-water solvent mixture, aqueous with cosolvent or surfactant or cyclodextrin, Dehydrated alcohol 40%-propylene glycol 30%-water 30% (w/w), read-out: Solubility): 49800 µg/mL (≈ 47.7 mM)
solubility at 24 h (dehydrated alcohol-propylene glycol-water solvent mixture, aqueous with cosolvent or surfactant or cyclodextrin, Dehydrated alcohol 40%-propylene glycol 40%-water 20% (w/w), read-out: Solubility): > 97600 µg/mL
solubility at 24 h (dehydrated alcohol-propylene glycol-water solvent mixture, aqueous with cosolvent or surfactant or cyclodextrin, Dehydrated alcohol 50%-propylene glycol 10%-water 40% (w/w), read-out: Solubility): 77700 µg/mL (≈ 74.5 mM)
solubility at 24 h (dehydrated alcohol-propylene glycol-water solvent mixture, aqueous with cosolvent or surfactant or cyclodextrin, Dehydrated alcohol 50%-propylene glycol 20%-water 30% (w/w), read-out: Solubility): > 77500 µg/mL
solubility at 24 h (dehydrated alcohol-propylene glycol-water solvent mixture, aqueous with cosolvent or surfactant or cyclodextrin, Dehydrated alcohol 50%-propylene glycol 30%-water 20% (w/w), read-out: Solubility): > 69300 µg/mL
solubility at 24 h (dehydrated alcohol-propylene glycol-water solvent mixture, aqueous with cosolvent or surfactant or cyclodextrin, Dehydrated alcohol 50%-propylene glycol 40%-water 10% (w/w), read-out: Solubility): > 67800 µg/mL
solubility at 24 h (dehydrated alcohol-propylene glycol-water solvent mixture, organic solvent or mixture, Dehydrated alcohol 50%-propylene glycol 50%-water 00% (w/w), read-out: Solubility): > 96000 µg/mL
solubility at 24 h (glycerin, organic solvent or mixture, solvent: Glycerin, read-out: 24 h solubility): 440 µg/mL (≈ 0.422 mM)
solubility at 24 h (liquid paraffin, oil or lipid, solvent: Liquid paraffin, read-out: 24 h solubility): 10 µg/mL (≈ 0.00959 mM)
solubility at 24 h (oleic acid, oil or lipid, solvent: Oleic acid, read-out: 24 h solubility): 1410 µg/mL (≈ 1.35 mM)
solubility at 24 h (polyethylene glycol 400 (PEG400), organic solvent or mixture, solvent: Polyethylene glycol 400 (PEG400), read-out: 24 h solubility): 16000 µg/mL (≈ 15.4 mM)
solubility at 24 h (propylene glycol, organic solvent or mixture, solvent: Propylene glycol, read-out: 24 h solubility): 12000 µg/mL (≈ 11.5 mM)
solubility at 24 h (solvent mixture, aqueous with cosolvent or surfactant or cyclodextrin, Dehydrated alcohol 10%-PEG400 30%-water 60% (w/w), read-out: Solubility): 60 µg/mL (≈ 0.0575 mM)
solubility at 24 h (solvent mixture, aqueous with cosolvent or surfactant or cyclodextrin, Dehydrated alcohol 10%-PEG400 40%-water 50% (w/w), read-out: Solubility): 280 µg/mL (≈ 0.268 mM)
solubility at 24 h (solvent mixture, aqueous with cosolvent or surfactant or cyclodextrin, Dehydrated alcohol 10%-glycerin 10%-water 80% (w/w), read-out: Solubility): < 100 µg/mL
solubility at 24 h (solvent mixture, aqueous with cosolvent or surfactant or cyclodextrin, Dehydrated alcohol 10%-glycerin 20%-water 70% (w/w), read-out: Solubility): < 100 µg/mL
solubility at 24 h (solvent mixture, aqueous with cosolvent or surfactant or cyclodextrin, Dehydrated alcohol 10%-glycerin 30%-water 60% (w/w), read-out: Solubility): < 100 µg/mL
solubility at 24 h (solvent mixture, aqueous with cosolvent or surfactant or cyclodextrin, Dehydrated alcohol 20%-glycerin 10%-water 70% (w/w), read-out: Solubility): < 100 µg/mL
solubility at 24 h (solvent mixture, aqueous with cosolvent or surfactant or cyclodextrin, Dehydrated alcohol 20%-glycerin 20%-water 60% (w/w), read-out: Solubility): < 100 µg/mL
solubility at 24 h (solvent mixture, aqueous with cosolvent or surfactant or cyclodextrin, Dehydrated alcohol 20%-glycerin 30%-water 50% (w/w), read-out: Solubility): < 100 µg/mL
solubility at 24 h (solvent mixture, aqueous with cosolvent or surfactant or cyclodextrin, Dehydrated alcohol 20%-glycerin 40%-water 40% (w/w), read-out: Solubility): < 100 µg/mL
solubility at 24 h (solvent mixture, aqueous with cosolvent or surfactant or cyclodextrin, Dehydrated alcohol 20%-glycerin 50%-water 30% (w/w), read-out: Solubility): < 100 µg/mL
solubility at 24 h (solvent mixture, aqueous with cosolvent or surfactant or cyclodextrin, Dehydrated alcohol 30%-glycerin 10%-water 60% (w/w), read-out: Solubility): 80 µg/mL (≈ 0.0767 mM)
solubility at 24 h (solvent mixture, aqueous with cosolvent or surfactant or cyclodextrin, Dehydrated alcohol 30%-glycerin 20%-water 50% (w/w), read-out: Solubility): 140 µg/mL (≈ 0.134 mM)
solubility at 24 h (solvent mixture, aqueous with cosolvent or surfactant or cyclodextrin, Dehydrated alcohol 30%-glycerin 30%-water 40% (w/w), read-out: Solubility): 650 µg/mL (≈ 0.623 mM)
solubility at 24 h (solvent mixture, aqueous with cosolvent or surfactant or cyclodextrin, Dehydrated alcohol 30%-glycerin 40%-water 30% (w/w), read-out: Solubility): 2260 µg/mL (≈ 2.17 mM)
solubility at 24 h (solvent mixture, aqueous with cosolvent or surfactant or cyclodextrin, Dehydrated alcohol 30%-glycerin 50%-water 20% (w/w), read-out: Solubility): 4080 µg/mL (≈ 3.91 mM)
solubility at 24 h (solvent mixture, aqueous with cosolvent or surfactant or cyclodextrin, Dehydrated alcohol 40%-glycerin 10%-water 50% (w/w), read-out: Solubility): 1580 µg/mL (≈ 1.51 mM)
solubility at 24 h (solvent mixture, aqueous with cosolvent or surfactant or cyclodextrin, Dehydrated alcohol 40%-glycerin 20%-water 40% (w/w), read-out: Solubility): 3400 µg/mL (≈ 3.26 mM)
solubility at 24 h (solvent mixture, aqueous with cosolvent or surfactant or cyclodextrin, Dehydrated alcohol 40%-glycerin 30%-water 30% (w/w), read-out: Solubility): 8840 µg/mL (≈ 8.47 mM)
solubility at 24 h (solvent mixture, aqueous with cosolvent or surfactant or cyclodextrin, Dehydrated alcohol 40%-glycerin 40%-water 20% (w/w), read-out: Solubility): 14700 µg/mL (≈ 14.1 mM)
solubility at 24 h (solvent mixture, aqueous with cosolvent or surfactant or cyclodextrin, Dehydrated alcohol 40%-glycerin 50%-water 10% (w/w), read-out: Solubility): 40000 µg/mL (≈ 38.4 mM)
solubility at 24 h (solvent mixture, aqueous with cosolvent or surfactant or cyclodextrin, Dehydrated alcohol 50%-PEG400 10%-water 40% (w/w), read-out: Solubility): 25100 µg/mL (≈ 24.1 mM)
solubility at 24 h (solvent mixture, aqueous with cosolvent or surfactant or cyclodextrin, Dehydrated alcohol 50%-PEG400 20%-water 30% (w/w), read-out: Solubility): > 51500 µg/mL
solubility at 24 h (solvent mixture, aqueous with cosolvent or surfactant or cyclodextrin, Dehydrated alcohol 50%-glycerin 10%-water 40% (w/w), read-out: Solubility): 15200 µg/mL (≈ 14.5 mM)
solubility at 24 h (solvent mixture, aqueous with cosolvent or surfactant or cyclodextrin, Dehydrated alcohol 50%-glycerin 20%-water 30% (w/w), read-out: Solubility): 23900 µg/mL (≈ 22.9 mM)
solubility at 24 h (solvent mixture, aqueous with cosolvent or surfactant or cyclodextrin, Dehydrated alcohol 50%-glycerin 30%-water 20% (w/w), read-out: Solubility): > 43600 µg/mL
solubility at 24 h (solvent mixture, aqueous with cosolvent or surfactant or cyclodextrin, Dehydrated alcohol 50%-glycerin 40%-water 10% (w/w), read-out: Solubility): > 64600 µg/mL
solubility at 24 h (solvent mixture, organic solvent or mixture, Dehydrated alcohol 50%-glycerin 50%-water 00% (w/w), read-out: Solubility): > 74100 µg/mL
24 h solubility (solvent: Dehydrated alcohol): >54480 µg/mL
24 h solubility (solvent: Liquid paraffin, listed as amorphous substance of the compound of formula I): extremely low
24 h solubility (solvent: Water, listed as amorphous substance of the compound of formula I): basically insoluble
